Experimental data reported in EP4653437A2 (Innovo Therapeutics Inc., priority 2023, dated 2024).

Tests used:
[1] = biological target: T1, human 15-PGDH (Homo sapiens, UniProt P15428); test: Evaluation of 15-PGDH inhibitory activity (fluorescence enzyme assay, NAD+/PGE2); type: biochemical; conditions: human 15-PGDH enzyme, fluorescence Vmax
T1 construct: purchased R&D System 5660-DH
T1 sequence (P15428 1-266): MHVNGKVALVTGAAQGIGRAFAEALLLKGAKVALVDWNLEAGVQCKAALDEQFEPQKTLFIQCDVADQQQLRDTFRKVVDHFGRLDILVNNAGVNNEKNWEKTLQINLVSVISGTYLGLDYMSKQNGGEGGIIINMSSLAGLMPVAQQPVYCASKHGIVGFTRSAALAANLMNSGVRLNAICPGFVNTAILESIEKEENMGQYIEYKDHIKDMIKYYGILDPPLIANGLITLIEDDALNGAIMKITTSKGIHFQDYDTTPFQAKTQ
Protocol: 15-PGDH inhibition activity of Example compounds was measured as follows. 6.7 ng of human 15-PGDH (R&D System# 5660-DH) enzyme (10 µL) was added to a black 96 well plate, 60 µL of buffer (50 mM Tris-HCl, pH 7.5, 0.01% Tween 20) was added, and 10 µL of 200 µM β-Nicotinamide adenine dinucleotide sodium salt (Sigma, Cat# N0632-5G) was added. 10 µL of (10x) compound solution in DMSO was added and reacted for 10 minutes at room temperature.

[2] = tested on: A549 cells; test: Measurement of PGE2-increasing activity in A549 cells (IL-1β stimulated, PGE2 quantified in supernatant); type: cell-based; conditions: Homo sapiens, 24 h; concentration of 1 µM of each compound; IL-1β treated A549 cells; read-out: Increased PGE2 production in A549 cells
How it was run: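 PGE2 secreted into the supernatant was measured by immunoassay 24 h after treatment. Before treatment, A549 cells were cultured 24 h in 10% FBS F12K, washed, and placed in serum-free medium containing compound (DMSO 0.1% final) plus or minus IL-1β, incubated at 37 °C, 5% CO2.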

Row | IC50 [1] | Compound | fold induction at 1 µM [2]
1 | ≤ 100 nM | O=C(c1cncc(-c2cccc3c(C(=O)N4CCCCC4)cnn23)c1)N1CCNCC1 [Example 48, piperazin-1-yl(5-(3-(piperidine-1-carbonyl)pyrazolo[1,5-a]pyridin-7-yl)pyridin-3-yl)methanone] | < 1.5
2 | ≤ 100 nM | O=C(c1cnn2c(-c3ccc4c(=O)[nH]ncc4c3)cccc12)N1CCCCC1 [Example 233, 6-(3-(piperidine-1-carbonyl)pyrazolo[1,5-a]pyridin-7-yl)phthalazin-1(2H)-one] | > 1.5
3 | 100 to 1000 nM | Nc1nn2c(-c3ccc4c(c3)C(=O)NCC4)cccc2c1C(=O)N1CCCCC1 [Example 159, 7-(2-amino-3-(piperidine-1-carbonyl)pyrazolo[1,5-a]pyridin-7-yl)-3,4-dihydroisoquinolin-1(2H)-one] | > 1.5
4 | ≤ 100 nM | O=C1NCCc2ccc(Nc3cccc4c(C(=O)N5CCCCC5)cnn34)cc21 [Example 211, 7-[[3-(piperidine-1-carbonyl)pyrazolo[1,5-a]pyridin-7-yl]amino]-3,4-dihydro-2H-isoquinolin-1-one] | > 1.5
5 | ≤ 100 nM | O=C(c1cncc(-c2cccc3c(C(=O)N4CCCCC4)cnn23)c1)N1CCC2(CC1)COC2 [Example 226, 2-oxa-7-azaspiro[3.5]nonan-7-yl-[5-[3-(piperidine-1-carbonyl)pyrazolo[1,5-a]pyridin-7-yl]-3-pyridyl]methanone] | > 1.5
6 | ≤ 100 nM | O=C(c1cnn2c(-c3ccc(Cl)cc3)cccc12)N1CCCCC1 [Example 12, (7-(4-chlorophenyl)pyrazolo[1,5-a]pyridin-3-yl)(piperidin-1-yl)methanone] | > 1.5
7 | ≤ 100 nM | N#Cc1ccc(-c2cccc3c(C(=O)N4CCCCC4)cnn23)cc1 [Example 15, 4-(3-(piperidine-1-carbonyl)pyrazolo[1,5-a]pyridin-7-yl)benzonitrile] | > 1.5
8 | ≤ 100 nM | O=C(Nc1cccc(-c2cccc3c(C(=O)N4CCCCC4)cnn23)c1)C1CC1 [Example 94, N-(3-(3-(piperidine-1-carbonyl)pyrazolo[1,5-a]pyridin-7-yl)phenyl)cyclopropanecarboxamide] | > 1.5
9 | ≤ 100 nM | COCCNC(=O)c1ccc(-c2cccc3c(C(=O)N4CCCCC4)cnn23)cc1 [Example 62, N-(2-methoxyethyl)-4-(3-(piperidine-1-carbonyl)pyrazolo[1,5-a]pyridin-7-yl)benzamide] | > 1.5
10 | ≤ 100 nM | O=C(c1cnn2c(-c3cccc(-c4nnn[nH]4)c3)cccc12)N1CCCCC1 [Example 113, (7-(3-(1H-tetrazol-5-yl)phenyl)pyrazolo[1,5-a]pyridin-3-yl)(piperidin-1-yl)methanone] | > 1.5
11 | ≤ 100 nM | O=C(c1cnn2c(-c3cnc(F)c(Cl)c3)cccc12)N1CCCCC1 [Example 289, (7-(5-chloro-6-fluoropyridin-3-yl)pyrazolo[1,5-a]pyridin-3-yl)(piperidin-1-yl)methanone] | > 1.5
12 | ≤ 100 nM | O=C(Nc1cncc(-c2cccc3c(C(=O)N4CCCCC4)cnn23)c1)c1cccnc1 [Example 326, N-(5-(3-(piperidine-1-carbonyl)pyrazolo[1,5-a]pyridin-7-yl)pyridin-3-yl)nicotinamide] | > 1.5
13 | ≤ 100 nM | NC(=O)Nc1cccc(-c2cccc3c(C(=O)N4CCCCC4)cnn23)c1 [Example 92, 1-(3-(3-(piperidine-1-carbonyl)pyrazolo[1,5-a]pyridin-7-yl)phenyl)urea] | > 1.5
14 | ≤ 100 nM | O=C(NCc1cncs1)c1cncc(-c2cccc3c(C(=O)N4CCCCC4)cnn23)c1 [Example 57, 5-(3-(piperidine-1-carbonyl)pyrazolo[1,5-a]pyridin-7-yl)-N-(thiazol-5-ylmethyl)nicotinamide] | > 1.5
15 | ≤ 100 nM | O=C(c1cnn2c(-c3cnc(N4CCOC4=O)nc3)cccc12)N1CCCCC1 [Example 308, 3-(5-(3-(piperidine-1-carbonyl)pyrazolo[1,5-a]pyridin-7-yl)pyrimidin-2-yl)oxazolidin-2-one] | > 1.5
16 | ≤ 100 nM | COC(=O)c1ncc(-c2cccc3c(C(=O)N4CCCCC4)cnn23)cc1F [Example 244, methyl 3-fluoro-5-[3-(piperidine-1-carbonyl)pyrazolo[1,5-a]pyridin-7-yl]pyridine-2-carboxylate] | < 1.5
17 | ≤ 100 nM | Cn1nc2ccc(-c3cccc4c(C(=O)N5CCCCC5)cnn34)cn2c1=O [Example 246, 2-methyl-6-(3-(piperidine-1-carbonyl)pyrazolo[1,5-a]pyridin-7-yl)-[1,2,4]triazolo[4,3-a]pyridin-3(2H)-one] | > 1.5
18 | ≤ 100 nM | COCCNC(=O)c1cncc(-c2cccc3c(C(=O)N4CCCCC4)cnn23)c1 [Example 45, N-(2-methoxyethyl)-5-(3-(piperidine-1-carbonyl)pyrazolo[1,5-a]pyridin-7-yl)nicotinamide] | > 1.5
19 | ≤ 100 nM | Cc1ncc(-c2cc(-c3cccc4c(C(=O)N5CCCCC5)cnn34)cc(N3CCOC3=O)n2)cn1 [Example 372, 3-(6-(2-methylpyrimidin-5-yl)-4-(3-(piperidine-1-carbonyl)pyrazolo[1,5-a]pyridin-7-yl)pyridin-2-yl)oxazolidin-2-one] | > 1.5
20 | ≤ 100 nM | O=C(c1cnn2c(-c3ccc(N4CCC5(CCC5)C4)nc3)cccc12)N1CCCCC1 [Example 223, (7-(6-(6-azaspiro[3.4]octan-6-yl)pyridin-3-yl)pyrazolo[1,5-a]pyridin-3-yl)(piperidin-1-yl)methanone] | > 1.5
21 | ≤ 100 nM | O=C1NCc2ccc(-c3cccc4c(C(=O)N5CC6(CCC6)C5)cnn34)cc21 [Example 390, 6-(3-(2-azaspiro[3.3]heptane-2-carbonyl)pyrazolo[1,5-a]pyridin-7-yl)isoindolin-1-one] | > 1.5
22 | ≤ 100 nM | CC(C)NC(=O)c1ccc(-c2cccc3c(C(=O)N4CCCCC4)cnn23)cc1 [Example 60, N-isopropyl-4-(3-(piperidine-1-carbonyl)pyrazolo[1,5-a]pyridin-7-yl)benzamide] | > 1.5
23 | ≤ 100 nM | O=C(c1cnn2c(-c3ccc(N4CC(F)C4)nc3)cccc12)N1CCCCC1 [Example 208, (7-(6-(3-fluoroazetidin-1-yl)pyridin-3-yl)pyrazolo[1,5-a]pyridin-3-yl)(piperidin-1-yl)methanone] | > 1.5
24 | ≤ 100 nM | O=C(Nc1ccncc1)c1ccc(-c2cccc3c(C(=O)N4CCCCC4)cnn23)cn1 [Example 88, 5-(3-(piperidine-1-carbonyl)pyrazolo[1,5-a]pyridin-7-yl)-N-(pyridin-4-yl)picolinamide] | > 1.5
25 | ≤ 100 nM | O=C(Nc1cncc(-c2cccc3c(C(=O)N4CCCCC4)cnn23)c1)c1cncnc1 [Example 334, N-(5-(3-(piperidine-1-carbonyl)pyrazolo[1,5-a]pyridin-7-yl)pyridin-3-yl)pyrimidine-5-carboxamide] | > 1.5
